Source: US20140294856A1, “COMBINATION TREATMENT COMPRISING A HDAC6 INHIBITOR AND AN AKT INHIBITOR” (priority 2011, published 2014)
Like-named read-outs stand apart in the source and are kept apart here.

Legend:
[1] = biological target: HDAC-8 (Homo sapiens, UniProt Q9BY41); experiment: Enzyme inhibition activity, Fluor-de-Lys kit; type: biochemical
Source text: HDAC-C1A is a particularly preferred HDAC6 inhibitor of the invention. […] HDAC-C1A is approximately 7-fold more specific for HDAC6 than for HDAC-8 and approximately 17-fold more specific for HDAC6 when compared with HDAC1 (see Table 1). […] As brain permeability remains a major limitation for drug treatment of CNS disorders, HDAC-C1A, or compounds derived from HDAC-C1A, appear to be very promising drug candidates.
(§1) FIG. 20 (Table 1): Enzyme inhibition activity using HeLa nuclear extract and the Fluor-de-Lys kit.

[2] = tested on: HCT116 xenograft; experiment: Differential gene expression, affymetrix human genome array; type: in vivo, mice
[3] = tested on: HCT116 cells; experiment: Combination studies, SRB assay, combination index (CalcuSyn); type: cell-based, human
[4] = Stability in PBS at acidic pH, HPLC-UV; type: physicochemical; conditions: down to pH 2, cell free, 10 μM in PBS, 1 hour, 37° C.
Method: FIG. 3. Impact of the pH on the stability of HDAC-C1A. HDAC-C1A was incubated at 10 μM in PBS for 1 hour at 37° C. and the concentration was evaluated using HPLC-UV. The pH of PBS was adjusted using HCL.
(§2) The drug was stable after oral, parenteral and intravenous administration for 24 h (last time point examined). […] The Cma and AUC0-24h following i.p. injection (20 mg/kg) were 3.2 μg/mL and 11.2 μg/mL*h, respectively. […] The acid instability of HDAC-C1A could therefore be improved by enteric coating as a means to avoid breakdown in the stomach. […] HDAC-C1A was also tested in HCT116 human colon cancer xenograft model using a refined dose and scheduling. […] This dose was non-toxic (no reduction in body weight) (FIG. 5.D). The acetylated form of α-tubulin (biomarker of response to HDAC6 inhibition) could be observed after 14 days of treatment and could be detected as early as 6 hours after the 1st injection (FIG. 5.E.). The acetylated form of Histone 3 (biomarker of response of class I histones) could be observed as early as 2 hours after the 1st injection and remain after 14 days of treatment (FIG. 5.E).

[5] = tested on: A2780 cells; experiment: Growth inhibition (GI50); type: cell-based, human
[6] = tested on: HCT116 tumours; experiment: Phospho-AKT levels in HCT116 tumours; type: in vivo, mice
[7] = biological target: HDAC6 (Homo sapiens, UniProt Q9UBN7); experiment: Enzyme inhibition activity, Fluor-de-Lys kit; type: biochemical
HDAC6, sequence (Q9UBN7 whole entry): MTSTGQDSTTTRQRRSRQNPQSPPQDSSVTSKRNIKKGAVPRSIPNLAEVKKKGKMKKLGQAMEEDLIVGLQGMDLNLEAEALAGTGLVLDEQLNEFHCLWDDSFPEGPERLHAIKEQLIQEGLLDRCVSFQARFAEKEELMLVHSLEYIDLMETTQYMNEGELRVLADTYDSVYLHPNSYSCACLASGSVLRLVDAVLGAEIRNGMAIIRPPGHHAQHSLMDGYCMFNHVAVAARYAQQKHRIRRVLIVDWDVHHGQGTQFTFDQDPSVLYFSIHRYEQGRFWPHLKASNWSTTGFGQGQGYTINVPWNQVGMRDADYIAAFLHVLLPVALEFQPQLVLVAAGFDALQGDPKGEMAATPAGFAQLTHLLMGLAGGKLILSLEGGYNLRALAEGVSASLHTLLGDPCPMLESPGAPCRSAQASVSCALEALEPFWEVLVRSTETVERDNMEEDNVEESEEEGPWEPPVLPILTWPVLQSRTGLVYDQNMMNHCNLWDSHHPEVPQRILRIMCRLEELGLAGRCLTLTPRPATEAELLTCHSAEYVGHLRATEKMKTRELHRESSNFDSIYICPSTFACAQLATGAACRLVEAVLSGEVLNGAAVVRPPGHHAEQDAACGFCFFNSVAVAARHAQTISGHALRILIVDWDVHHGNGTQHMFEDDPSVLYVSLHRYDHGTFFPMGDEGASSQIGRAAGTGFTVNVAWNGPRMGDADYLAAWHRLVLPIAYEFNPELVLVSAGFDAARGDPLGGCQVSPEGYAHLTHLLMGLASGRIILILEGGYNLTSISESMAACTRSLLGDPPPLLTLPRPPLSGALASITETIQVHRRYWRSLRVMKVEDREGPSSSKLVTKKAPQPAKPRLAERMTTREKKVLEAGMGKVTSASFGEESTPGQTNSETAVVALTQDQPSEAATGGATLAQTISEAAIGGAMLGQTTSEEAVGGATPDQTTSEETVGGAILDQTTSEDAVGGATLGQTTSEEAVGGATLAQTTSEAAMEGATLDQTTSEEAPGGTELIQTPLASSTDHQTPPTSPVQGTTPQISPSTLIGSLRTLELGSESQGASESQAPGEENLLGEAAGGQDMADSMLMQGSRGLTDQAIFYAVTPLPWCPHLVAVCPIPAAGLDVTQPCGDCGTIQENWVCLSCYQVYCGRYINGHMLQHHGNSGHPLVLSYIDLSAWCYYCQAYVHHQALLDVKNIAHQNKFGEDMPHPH
Source text: as §1
(§3) HSP90 protein expression was not altered (FIG. 2).

[8] = tested on: HCT116 xenograft; experiment: Biomarkers screening in HCT116 xenograft tumours; type: in vivo, mice
Method: FIG. 5. Anti-tumour activity of HDAC-C1A in A2780 (A & B) and HCT116 (C & D) xenograft models (Tumours volumes relative to tumour volume at day 1 (A & C) and corresponding body weight (relative to body weight at day 1) (B & D)). E. Biomarkers screening at early time points following a single injection of HDAC-C1A in HCT116 xenograft at 40 mg/kg compared to a continuous 14 days treatment at the indicated dose. Tumours were excised 6 hours following the last injection.
as §2

[9] = tested on: HCT116 human colon cancer xenograft
[10] = tested on: HCT116 cells; experiment: Phospho-AKT levels by western blotting; type: cell-based, human; conditions: 10 μM
[11] = tested on: RAD51; experiment: RAD51 mRNA and protein expression; type: cell-based; conditions: in vitro and in vivo
[12] = tested on: HCT116 cells; experiment: Growth inhibition (GI50); type: cell-based, human
Source text: Different treatment scheduling are shown. […] The results are mean of n=6.

[13] = tested on: CHO cells deficient in DNA repair; experiment: Growth inhibition in cell lines deficient in DNA repair machinery; type: cell-based
[14] = tested on: caco-2 cells; experiment: caco-2 transwell permeability assay
[15] = tested on: A2780; experiment: Phospho-AKT levels by western blotting; type: cell-based, human; conditions: ovarian cancer cell line A2780
[16] = tested on: HDAC from HeLa cell extract; experiment: Irreversible HDAC inhibition, HeLa nuclear extracts; type: biochemical
Method: FIG. 1. HDAC-C1A irreversible activity. A. […] inhibitory activity of HDAC-C1A was tested using HeLa nuclear extracts and compared to the negative (reversible) control HDAC-C1B. B Growth inhibitory effect of the different compounds in HCT-116 cells at indicated time and compared to growth inhibitory after 72 hours of incubation.
as §3

[17] = 14 days, 40 mg/kg every other day
[18] = HDAC-C1A 20 mg/kg bid combined with API-2 1 mg/kg/d
[19] = HDAC-C1A combined with BEZ-235 20 mg/kg/day, given 8 hours apart
[20] = homologous recombination repair

HDAC-8, sequence (Q9BY41 whole entry): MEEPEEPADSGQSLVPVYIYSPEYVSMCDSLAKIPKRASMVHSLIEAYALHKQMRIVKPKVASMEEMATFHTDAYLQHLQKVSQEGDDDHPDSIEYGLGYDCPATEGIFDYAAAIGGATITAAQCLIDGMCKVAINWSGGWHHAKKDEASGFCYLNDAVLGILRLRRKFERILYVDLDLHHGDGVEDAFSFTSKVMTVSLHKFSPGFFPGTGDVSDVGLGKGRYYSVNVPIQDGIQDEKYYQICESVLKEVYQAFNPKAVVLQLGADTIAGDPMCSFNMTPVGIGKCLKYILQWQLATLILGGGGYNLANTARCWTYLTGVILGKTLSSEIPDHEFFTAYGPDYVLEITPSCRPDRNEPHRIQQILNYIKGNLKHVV

## CC(/C=C/C(=O)NO)=C\c1ccc(NS(=O)(=O)c2ccc(N(CCCl)CCCl)cc2)cc1 [HDAC-C1A]
[1]
  fold more specific for HDAC6 than for HDAC-8: approximately 7 fold
[2]; 24 hours, 40 mg/kg
  number of genes deregulated (of 20 000 tested): 20 genes
  number of genes up-regulated: 17
[2]; 14 days of treatment
  ALDH1 up-regulation: ~1.6 fold
  Gasdermin D up-regulation: ~1.5 fold
  K AZ up-regulation: ~1.5 fold
  KLK3 down-regulation: ~1.5 fold
  RAD23B up-regulation: ~1.8 fold
  SYNDECAN-2 down-regulation: ~1.7 fold
  UNG up-regulation: ~1.7 fold
[2]; [17]
  number of genes deregulated by at least 1.5 fold: 132 genes
  share of genes deregulated: < 0.7%
[2]; after 1 and 14 days
  mRNA levels of PTEN vs vehicle: not altered
[3]
  concentration of LY-294002 needed to synergise: 1 µM
[3]; ED50
  lowest concentration synergising with rapamycin: ≥ 1.9 µM
[4]
  stability across acidic pH: relative acidic degradation
[5]
  GI50: 700 nM
[6]; HDAC-C1A alone 20 mg/kg, 6 hours
  P-AKT in tumours: up-regulation
[6]; HDAC-C1A combined with API-2, 24 hours after single injection
  P-AKT in tumours: still showed increased P-AKT
[6]; combination regimen BEZ-235 + HDAC-C1A, 6 hours
  P-AKT in tumours: No P-AKT was detected
[7]
  IC50 for HDAC6: 0.063 µg/mL
[8]; after 48 hours
  anti-apoptotic factor Bcl2: down-regulated
[8]; single injection 40 mg/kg
  earliest detection of acetylated Histone 3 after 1st injection: 2 h
  earliest detection of acetylated α-tubulin after 1st injection: 6 h
[9]; [18]
  TGD2x: 2.7 ± 1.3 days
  TGI compared with vehicle: 54%
[9]; HDAC-C1A alone 20 mg/kg/day
  TGD2x: 3.8 ± 1.3 days
  TGI: 69%
[9]; [19]
  TGD2x: 8.2 ± 1.3 days
  TGI: 74%
[9]; HDAC-C1A combined with BEZ-235, given 30 minutes apart
  TGI: 115%
[9]; i.p. 20 mg/kg b.i.d.
  TGD2x: 5.7 ± 1.4 days
  TGI compared with vehicle: 78%
  toxicity (body weight): non-toxic
[10]; 4 h
  fold increase of P-AKT: 1.5 fold
[10]; 24 h
  fold increase of P-AKT: 2 fold
[11]
  RAD51 mRNA and protein expression: did not increase
[12]
  GI50: 3700 nM
[13]; [20]
  sensitivity (GI50 ratio) of cells deficient in XRCC3 vs proficient: as sensitive as the parental proficient cell lines
  sensitivity (GI50 ratio, fold) of cells deficient in XRCC2 vs proficient: as sensitive as the parental proficient cell lines
[13]; non homologous end joining
  sensitivity (GI50 ratio, fold) of cells deficient in XRCC5 vs proficient: as sensitive as the parental proficient cell lines
[13]; nucleotide excision repair
  sensitivity (GI50 ratio) of cells deficient in ERCC1 vs proficient: as sensitive as the parental proficient cell lines
  sensitivity of cells deficient in XPB vs proficient: as sensitive as the parental proficient cell lines
[14]; Caco-2
  permeability across caco-2 cells: relatively good permeability
  substrate of the ABC transporters: non substrate
[14]; caco-2 cells
  permeability (PappA-B): 5.1 ×10⁻⁶ cm/s
[14]; ratio greater than 3 = actively effluxed
  PappB-A/PappA-B ratio: 2.8
[15]
  P-AKT levels: increased
[16]
  mode of HDAC inhibition: irreversibly inhibited
